From ChEMBL document CHEMBL1148408, “Inhibitors of serine proteases as potential therapeutic agents: the road from thrombin to tryptase to cathepsin G” (J Med Chem, 2004)

Assays:
[1] = target: T1, Cathepsin G (Homo sapiens) (UniProt P08311); assay: Inhibitory activity against human Cathepsin G at 100 uM; Not active
T1 sequence (whole entry): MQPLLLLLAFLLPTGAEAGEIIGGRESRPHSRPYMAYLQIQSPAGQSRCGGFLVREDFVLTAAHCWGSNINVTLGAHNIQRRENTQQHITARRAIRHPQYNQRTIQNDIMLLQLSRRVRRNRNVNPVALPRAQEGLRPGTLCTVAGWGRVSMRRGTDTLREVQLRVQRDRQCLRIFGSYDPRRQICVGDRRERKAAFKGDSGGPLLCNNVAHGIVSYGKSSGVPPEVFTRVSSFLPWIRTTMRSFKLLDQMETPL

Cathepsin G = target: T2, Cathepsin G (Homo sapiens, UniProt P08311); assay: Inhibitory activity against human Cathepsin G
T2 sequence (P08311 whole entry): T1 sequence (whole entry)

Prothrombin [2] = target: T3, Prothrombin (Homo sapiens, UniProt P00734); assay: Binding affinity to human thrombin
Oryctolagus cuniculus = assay: In vivo antithrombotic activity using rabbit thrombosis model; assay type: functional
[3] = Oral bioavailability; assay type: ADME, organism-based; conditions: eutheria, in vivo
Canis familiaris = assay: In vivo antithrombotic activity using canine thrombosis model; assay type: functional; conditions: Canis lupus familiaris
Tryptase = Tryptase (Homo sapiens, UniProt Q9BZJ3+Q15661+Q9NRR2); assay: Binding affinity against human alpha tryptase; assay type: protein assay
Prothrombin [4] = target: T3, Prothrombin; assay: Binding activity against human alpha thrombin

## O=C(c1cccc2ccccc12)C(c1cccc2ccccc12)P(=O)(O)O (stereo not drawn)
[1]
  inhibition: < 50%

## O=C(c1ccc2ccccc2c1)C(c1cccc2ccccc12)P(=O)(O)O (stereo not drawn)
Cathepsin G
  IC50: 4100 nM

## CN[C@H](Cc1ccccc1)C(=O)N1CCC[C@H]1C(=O)N[C@@H](CCCN=C(N)N)C(=O)c1nc(O)c2ccccc2n1
Prothrombin [2]
  Ki: 15 nM

## CN[C@H](Cc1ccccc1)C(=O)N1CCC[C@H]1C(=O)N[C@@H](CCCNC(=N)N)C(=O)c1nccs1
Prothrombin [2]
  Ki: 2.1 nM

## O=C(c1ccc2ccccc2c1)C(c1ccc2ccccc2c1)P(=O)(O)O (stereo not drawn)
[1]
  inhibition: < 50%

## CN[C@H](Cc1ccccc1)C(=O)N1CCC[C@H]1C(=O)N[C@@H](CCCN=C(N)N)C(=O)c1nccn1C
Prothrombin [2]
  Ki: 200 nM

## CN[C@H](Cc1ccccc1)C(=O)N1CCC[C@H]1C(=O)N[C@@H](CCCNC(=N)N)C(=O)c1nc2ccc(C(=O)O)cc2s1
Oryctolagus cuniculus
  ED50: 0.3 mg/kg
[3]
  bioavailability: 3%
Canis familiaris
  ED50: 0.47 mg/kg

## O=C(c1ccc2ccccc2c1)C(c1ccccc1)P(=O)(O)O (stereo not drawn)
[1]
  inhibition: < 50%

## CN[C@H](Cc1ccccc1)C(=O)N1CCC[C@H]1C(=O)N[C@@H](CCCNC(=N)N)C(=O)c1nc2ccccc2[nH]1
Prothrombin [2]
  Ki: 9.6 nM

## O=C(Cc1ccc2ccccc2c1)C(c1cccc2ccccc12)P(=O)(O)O (stereo not drawn)
[1]
  inhibition: < 50%

## N=C(N)NCCC[C@@H]1NC(=O)C2CCCN2C(=O)[C@@H](NC(=O)Cc2ccccc2)CNC(=O)/C=C/[C@H](Cc2ccc(O)cc2)NC(=O)[C@@H](Cc2ccccc2)NC(=O)C1=O (stereo partly drawn)
Prothrombin [2]
  Ki: 3.1 nM

## CN(CC(=O)NCC(c1ccccc1)c1ccccc1)C(=O)c1cc2ccccc2cc1C(=O)C(c1cccc2ccccc12)P(=O)(O)O (stereo not drawn)
Cathepsin G
  IC50: 500 nM

## CN(Cc1ccccc1)C(=O)c1cc2ccccc2cc1C(=O)C(c1cccc2ccccc12)P(=O)(O)O (stereo not drawn)
Cathepsin G
  IC50: 1000 nM

## O=P(O)(O)C(c1cccc2ccccc12)S(=O)(=O)c1ccc2ccccc2c1 (stereo not drawn)
[1]
  inhibition: < 50%

## O=P(O)(O)C(Cc1ccc2ccccc2c1)c1cccc2ccccc12 (stereo not drawn)
[1]
  inhibition: < 50%

## CC(=O)N1C[C@H](O)C[C@H]1C(=O)N[C@@H](CCCN=C(N)N)C(=O)c1nc2ccccc2s1
Tryptase
  Ki: 10 nM

## CN[C@H](Cc1ccccc1)C(=O)N1CCC[C@H]1C(=O)N[C@H](C=O)CCCNC(=N)N
Oryctolagus cuniculus
  ED50: 0.13 mg/kg

## N=C(N)NCCC[C@@H]1NC(=O)C2CCCN2C(=O)[C@@H](NCCc2ccccc2)CNC(=O)/C=C/[C@H](Cc2ccc(O)cc2)NC(=O)[C@@H](Cc2ccccc2)NC(=O)C1=O (stereo partly drawn)
Prothrombin [2]
  Ki: 1.5 nM

## CC(C(=O)c1ccc2ccccc2c1)(c1cccc2ccccc12)P(=O)(O)O (stereo not drawn)
[1]
  inhibition: < 50%

## O=P(O)(O)C(c1cccc2ccccc12)C(O)c1ccc2ccccc2c1 (stereo not drawn)
[1]
  inhibition: < 50%

## N=C(N)NCCC[C@H](NC(=O)C1CCCC1)C(=O)c1nc2ccccc2s1
Tryptase
  Ki: 88 nM

## CN[C@H](Cc1ccccc1)C(=O)N1CCC[C@H]1C(=O)N[C@@H](CCCN=C(N)N)C(=O)c1nc2ccccc2o1
Prothrombin [2]
  Ki: 6.2 nM

## N=C(N)NCCC[C@@H]1NC(=O)C2CCCN2C(=O)[C@@H](NC=O)CNC(=O)/C=C/[C@H](Cc2ccc(O)cc2)NC(=O)[C@@H](Cc2ccccc2)NC(=O)C1=O (stereo partly drawn)
Prothrombin [2]
  Ki: 4.1 nM

## N=C(N)NCCC[C@@H]1NC(=O)C2CCCN2C(=O)[C@@H](Cc2ccccc2)NC(=O)CCCCCCCNC(=O)C1=O (stereo partly drawn)
Prothrombin [2]
  Ki: 24 nM

## CN[C@H](Cc1ccccc1)C(=O)N1CCC[C@H]1C(=O)N[C@@H](CCCN=C(N)N)C(=O)c1nc2ccccc2s1
Oryctolagus cuniculus
  ED50: 0.29 mg/kg
[3]
  bioavailability: 1%
Prothrombin [2]
  Ki: 0.2 nM

## CN[C@@H](C(=O)N1CCC[C@H]1C(=O)N[C@@H](CCCN=C(N)N)C(=O)c1nc2ccccc2s1)C(c1ccccc1)c1ccccc1
Prothrombin [2]
  Ki: 0.00065 nM
Prothrombin [4]
  IC50: 4.5 nM

## CN(CC(=O)NCCc1ccccc1)C(=O)c1cc2ccccc2cc1C(=O)C(c1cccc2ccccc12)P(=O)(O)O (stereo not drawn)
Cathepsin G
  IC50: 1300 nM

## N=C(N)NCCC[C@@H]1NC(=O)[C@@H]2CCCN2C(=O)[C@@H](NC=O)NC(=O)CCCCCCNC(=O)C1=O
Prothrombin [2]
  Ki: 260 nM
